The values below come from the supplement of paper PMC10307832.

What all share (experiment): relative viability (nuclei count vs DMSO), 5 days (fraction); higher = more cells survive
Compound in the assay “CAP-232 + Vorinostat”: C[C@H]([C@@H](C(=O)N)NC(=O)[C@@H]1CSSC[C@@H](C(=O)N[C@H](C(=O)N[C@@H](C(=O)N[C@H](C(=O)N1)CCCCN)CC2=CNC3=CC=CC=C32)CC4=CC=C(C=C4)O)NC(=O)[C@@H](CC5=CC=CC=C5)N)O [CAP-232] + O=C(CCCCCCC(=O)Nc1ccccc1)NO [Vorinostat] (partner 1 µM)
The procedure, abridged: (§1)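 Cells from lung cancer lines were seeded into 1536-well plates and, one day later, dosed by pin tool. Treatments were either a single drug or a fixed dose of an anchor drug with five library-drug doses (not always all listed) in √10 steps. After 5 days, nuclei were stained in a one-step fixation (final 0.05% Triton X-100, 1% formaldehyde, 1 ug/ml Hoechst) and counted on 4× images, and relative viability is the treated-to-vehicle nuclei ratio, as the median of duplicate plates.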

Compound in the assay “CAP-232 + Phenformin”: C[C@H]([C@@H](C(=O)N)NC(=O)[C@@H]1CSSC[C@@H](C(=O)N[C@H](C(=O)N[C@@H](C(=O)N[C@H](C(=O)N1)CCCCN)CC2=CNC3=CC=CC=C32)CC4=CC=C(C=C4)O)NC(=O)[C@@H](CC5=CC=CC=C5)N)O [CAP-232] + N=C(N)NC(=N)NCCc1ccccc1 [Phenformin] (partner 250 µM)
The procedure, abridged: as §1

Compound in the assay “CAP-232 + Pictilisib”: C[C@H]([C@@H](C(=O)N)NC(=O)[C@@H]1CSSC[C@@H](C(=O)N[C@H](C(=O)N[C@@H](C(=O)N[C@H](C(=O)N1)CCCCN)CC2=CNC3=CC=CC=C32)CC4=CC=C(C=C4)O)NC(=O)[C@@H](CC5=CC=CC=C5)N)O [CAP-232] + CS(=O)(=O)N1CCN(Cc2cc3nc(-c4cccc5[nH]ncc45)nc(N4CCOCC4)c3s2)CC1 [Pictilisib] (partner 1 µM)
The method, boiled down: as §1

Compound in the assay “CAP-232 + Tozasertib”: C[C@H]([C@@H](C(=O)N)NC(=O)[C@@H]1CSSC[C@@H](C(=O)N[C@H](C(=O)N[C@@H](C(=O)N[C@H](C(=O)N1)CCCCN)CC2=CNC3=CC=CC=C32)CC4=CC=C(C=C4)O)NC(=O)[C@@H](CC5=CC=CC=C5)N)O [CAP-232] + Cc1cc(Nc2cc(N3CCN(C)CC3)nc(Sc3ccc(NC(=O)C4CC4)cc3)n2)n[nH]1 [Tozasertib] (partner 0.1 µM)
The procedure, abridged: as §1

Compound in the assay “CAP-232 + Alpelisib”: C[C@H]([C@@H](C(=O)N)NC(=O)[C@@H]1CSSC[C@@H](C(=O)N[C@H](C(=O)N[C@@H](C(=O)N[C@H](C(=O)N1)CCCCN)CC2=CNC3=CC=CC=C32)CC4=CC=C(C=C4)O)NC(=O)[C@@H](CC5=CC=CC=C5)N)O [CAP-232] + Cc1nc(NC(=O)N2CCC[C@H]2C(N)=O)sc1-c1ccnc(C(C)(C)C(F)(F)F)c1 [Alpelisib] (partner 2 µM)
The procedure, abridged: as §1

In the case of NCI-H1755, the relative viability turned out to be 0.698 in the assay with CAP-232 + Vorinostat (first compound 0.4 µM); 0.635 in the assay with CAP-232 + Vorinostat (first compound 1.265 µM); 0.755 in the assay with CAP-232 + Vorinostat (first compound 4 µM); 0.73 with CAP-232 + Vorinostat (first compound 12.65 µM); 0.676 with CAP-232 + Phenformin (first compound 0.4 µM); 0.626 with CAP-232 + Phenformin (first compound 1.265 µM). The relative viability was found to be 0.622 with CAP-232 + Phenformin (first compound 4 µM); 0.582 with CAP-232 + Phenformin (first compound 12.65 µM); 0.379 with CAP-232 + Pictilisib (first compound 0.4 µM); 0.402 with CAP-232 + Pictilisib (first compound 1.265 µM); 0.452 in the assay with CAP-232 + Pictilisib (first compound 4 µM); 0.415 with CAP-232 + Pictilisib (first compound 12.65 µM). Besides, the relative viability was determined as 0.581 in the assay with CAP-232 + Tozasertib (first compound 0.4 µM); 0.498 in the assay with CAP-232 + Tozasertib (first compound 1.265 µM); 0.58 in the assay with CAP-232 + Tozasertib (first compound 4 µM); 0.498 with CAP-232 + Tozasertib (first compound 12.65 µM); 0.984 with CAP-232 + Alpelisib (first compound 0.4 µM); 0.91 in the assay with CAP-232 + Alpelisib (first compound 1.265 µM). In addition, the figures for the relative viability with CAP-232 + Alpelisib (first compound 4 µM) and in the assay with CAP-232 + Alpelisib (first compound 12.65 µM) were 1.1 and 0.763, respectively.
Consider NCI-H1793, for which the relative viability with CAP-232 + Vorinostat (first compound 0.4 µM) was 0.947; in the assay with CAP-232 + Vorinostat (first compound 1.265 µM), 0.703; with CAP-232 + Vorinostat (first compound 4 µM), 0.728; in the assay with CAP-232 + Vorinostat (first compound 12.65 µM), 0.653; with CAP-232 + Phenformin (first compound 0.4 µM), 0.4; with CAP-232 + Phenformin (first compound 1.265 µM), 0.367. In addition, the relative viability with CAP-232 + Phenformin (first compound 4 µM) came out at 0.329; with CAP-232 + Phenformin (first compound 12.65 µM), 0.372; in the assay with CAP-232 + Pictilisib (first compound 0.4 µM), 0.334; with CAP-232 + Pictilisib (first compound 1.265 µM), 0.284; in the assay with CAP-232 + Pictilisib (first compound 4 µM), 0.31; in the assay with CAP-232 + Pictilisib (first compound 12.65 µM) it was 0.283. In addition, the relative viability was 0.375 in the assay with CAP-232 + Tozasertib (first compound 0.4 µM); 0.355 in the assay with CAP-232 + Tozasertib (first compound 1.265 µM); 0.486 with CAP-232 + Tozasertib (first compound 4 µM); 0.356 with CAP-232 + Tozasertib (first compound 12.65 µM); 0.829 in the assay with CAP-232 + Alpelisib (first compound 0.4 µM); 0.669 with CAP-232 + Alpelisib (first compound 1.265 µM). For the same cell line, the relative viability with CAP-232 + Alpelisib (first compound 4 µM) is 0.573; in the assay with CAP-232 + Alpelisib (first compound 12.65 µM), 0.627.
For the cell line NCI-H1915, the relative viability is 0.697 with CAP-232 + Vorinostat (first compound 0.4 µM); 0.511 with CAP-232 + Vorinostat (first compound 1.265 µM); 0.516 in the assay with CAP-232 + Vorinostat (first compound 4 µM); 0.506 with CAP-232 + Vorinostat (first compound 12.65 µM); 0.419 in the assay with CAP-232 + Phenformin (first compound 0.4 µM); 0.356 with CAP-232 + Phenformin (first compound 1.265 µM). In addition, the relative viability was determined as 0.407 in the assay with CAP-232 + Phenformin (first compound 4 µM); 0.397 with CAP-232 + Phenformin (first compound 12.65 µM); 0.878 with CAP-232 + Pictilisib (first compound 0.4 µM); 0.852 with CAP-232 + Pictilisib (first compound 1.265 µM); 1.01 with CAP-232 + Pictilisib (first compound 4 µM); 0.914 with CAP-232 + Pictilisib (first compound 12.65 µM). Also, the relative viability in the assay with CAP-232 + Tozasertib (first compound 0.4 µM) was found to be 0.593; in the assay with CAP-232 + Tozasertib (first compound 1.265 µM), 0.432; with CAP-232 + Tozasertib (first compound 4 µM), 0.444; in the assay with CAP-232 + Tozasertib (first compound 12.65 µM) it was 0.466; with CAP-232 + Alpelisib (first compound 0.4 µM) it was 1.05; in the assay with CAP-232 + Alpelisib (first compound 1.265 µM) it was 1.02. The relative viability was determined as 1.04 with CAP-232 + Alpelisib (first compound 4 µM) and 1.06 in the assay with CAP-232 + Alpelisib (first compound 12.65 µM).
For NCI-H1944, the relative viability with CAP-232 + Vorinostat (first compound 0.4 µM) was found to be 0.614; in the assay with CAP-232 + Vorinostat (first compound 1.265 µM), 0.673; with CAP-232 + Vorinostat (first compound 4 µM) it was 0.559; with CAP-232 + Vorinostat (first compound 12.65 µM), 0.552; with CAP-232 + Phenformin (first compound 0.4 µM) it was 0.211; with CAP-232 + Phenformin (first compound 1.265 µM) it was 0.207. In addition, the relative viability stood at 0.221 in the assay with CAP-232 + Phenformin (first compound 4 µM); 0.181 in the assay with CAP-232 + Phenformin (first compound 12.65 µM); 0.371 in the assay with CAP-232 + Pictilisib (first compound 0.4 µM); 0.33 in the assay with CAP-232 + Pictilisib (first compound 1.265 µM); 0.394 with CAP-232 + Pictilisib (first compound 4 µM); 0.354 with CAP-232 + Pictilisib (first compound 12.65 µM). Besides, the relative viability was determined as 0.245 with CAP-232 + Tozasertib (first compound 0.4 µM); 0.253 with CAP-232 + Tozasertib (first compound 1.265 µM); 0.27 with CAP-232 + Tozasertib (first compound 4 µM); 0.263 with CAP-232 + Tozasertib (first compound 12.65 µM); 0.956 with CAP-232 + Alpelisib (first compound 0.4 µM); 0.806 with CAP-232 + Alpelisib (first compound 1.265 µM). Also, the relative viability with CAP-232 + Alpelisib (first compound 4 µM) worked out at 0.794; in the assay with CAP-232 + Alpelisib (first compound 12.65 µM), 0.782.
With NCI-H1975, the relative viability in the assay with CAP-232 + Vorinostat (first compound 0.4 µM) turned out to be 0.781; with CAP-232 + Vorinostat (first compound 1.265 µM), 0.758; in the assay with CAP-232 + Vorinostat (first compound 4 µM), 0.763; with CAP-232 + Vorinostat (first compound 12.65 µM) it was 0.449; with CAP-232 + Phenformin (first compound 0.4 µM) it was 0.449; with CAP-232 + Phenformin (first compound 1.265 µM), 0.413. In addition, the relative viability with CAP-232 + Phenformin (first compound 4 µM) amounted to 0.437; with CAP-232 + Phenformin (first compound 12.65 µM), 0.332; with CAP-232 + Pictilisib (first compound 0.4 µM) it was 0.262; with CAP-232 + Pictilisib (first compound 1.265 µM) it was 0.261; with CAP-232 + Pictilisib (first compound 4 µM), 0.313; with CAP-232 + Pictilisib (first compound 12.65 µM) it was 0.191. The relative viability amounted to 0.968 with CAP-232 + Tozasertib (first compound 0.4 µM); 0.75 with CAP-232 + Tozasertib (first compound 1.265 µM); 0.94 in the assay with CAP-232 + Tozasertib (first compound 4 µM); 0.482 in the assay with CAP-232 + Tozasertib (first compound 12.65 µM); 0.734 with CAP-232 + Alpelisib (first compound 0.4 µM); 0.579 with CAP-232 + Alpelisib (first compound 1.265 µM). The relative viability with CAP-232 + Alpelisib (first compound 4 µM) turned out to be 0.704; with CAP-232 + Alpelisib (first compound 12.65 µM), 0.434.
Consider NCI-H1993, for which the relative viability is 0.702 with CAP-232 + Vorinostat (first compound 0.4 µM); 0.802 with CAP-232 + Vorinostat (first compound 1.265 µM); 0.791 in the assay with CAP-232 + Vorinostat (first compound 4 µM); 0.749 with CAP-232 + Vorinostat (first compound 12.65 µM); 0.497 with CAP-232 + Phenformin (first compound 0.4 µM); 0.541 in the assay with CAP-232 + Phenformin (first compound 1.265 µM). Moreover, the relative viability stood at 0.545 with CAP-232 + Phenformin (first compound 4 µM); 0.564 with CAP-232 + Phenformin (first compound 12.65 µM); 0.887 with CAP-232 + Pictilisib (first compound 0.4 µM); 0.935 with CAP-232 + Pictilisib (first compound 1.265 µM); 0.977 in the assay with CAP-232 + Pictilisib (first compound 4 µM); 0.768 with CAP-232 + Pictilisib (first compound 12.65 µM). The relative viability with CAP-232 + Tozasertib (first compound 0.4 µM) came out at 0.621; with CAP-232 + Tozasertib (first compound 1.265 µM) it was 0.569; with CAP-232 + Tozasertib (first compound 4 µM), 0.664; with CAP-232 + Tozasertib (first compound 12.65 µM), 0.582; with CAP-232 + Alpelisib (first compound 0.4 µM) it was 0.605; with CAP-232 + Alpelisib (first compound 1.265 µM) it was 0.674. Also, the relative viability with CAP-232 + Alpelisib (first compound 4 µM) is 0.719; with CAP-232 + Alpelisib (first compound 12.65 µM) it was 0.633.
For the cell line NCI-H2009, the relative viability in the assay with CAP-232 + Vorinostat (first compound 0.4 µM) was 0.731; with CAP-232 + Vorinostat (first compound 1.265 µM) it was 0.733; with CAP-232 + Vorinostat (first compound 4 µM), 0.773; in the assay with CAP-232 + Vorinostat (first compound 12.65 µM), 0.634; with CAP-232 + Phenformin (first compound 0.4 µM), 0.501; in the assay with CAP-232 + Phenformin (first compound 1.265 µM) it was 0.493. The relative viability with CAP-232 + Phenformin (first compound 4 µM) amounted to 0.547; with CAP-232 + Phenformin (first compound 12.65 µM) it was 0.42; with CAP-232 + Pictilisib (first compound 0.4 µM), 0.711; with CAP-232 + Pictilisib (first compound 1.265 µM) it was 0.728; in the assay with CAP-232 + Pictilisib (first compound 4 µM) it was 0.88; with CAP-232 + Pictilisib (first compound 12.65 µM), 0.478. Moreover, the relative viability with CAP-232 + Tozasertib (first compound 0.4 µM) came out at 0.757; with CAP-232 + Tozasertib (first compound 1.265 µM), 0.713; in the assay with CAP-232 + Tozasertib (first compound 4 µM), 0.823; in the assay with CAP-232 + Tozasertib (first compound 12.65 µM) it was 0.684; in the assay with CAP-232 + Alpelisib (first compound 0.4 µM), 1.17; in the assay with CAP-232 + Alpelisib (first compound 1.265 µM), 1.08. Further, the relative viability was found to be 1.13 with CAP-232 + Alpelisib (first compound 4 µM) and 1.03 with CAP-232 + Alpelisib (first compound 12.65 µM).
